The nature of data set [1]: Sensory evaluation (smell, color, taste) of Maillard reaction samples, Examples 52, 55-63. Also on record: species or system human. The procedure:
For evaluation of the taste profile, the samples were tested by a panel of four people. 1 trained taster tasted independently the samples first. The taster was asked to describe the taste profile and score 0-5 according to the increasing sugar likeness, bitterness, aftertaste and lingering taste profiles. The first taster was allowed to re-taste, and then make notes for the sensory attributes perceived. Afterwards, another 3 tasters tasted and the attributes were noted and discussed openly to find a suitable description. In case that more than 1 taster disagreed with the results, the tasting was repeated. In some sensory test results (above), the taste rating was expressed by “+”, which means the intensity of the factors is shown by three levels. “+” for slight, “++” for moderate and “+++” for very strong.
All samples were assessed at 22° C. after the Maillard reaction was stopped by placing the sealed vials in an ice bath. After 20 minutes in the ice bath the sealed vials were put in a water bath set to 22° C.
The odor/smell was assessed independently by 3 persons; the final description was agreed after discussion. […] The taste was assessed independently by 3 persons either in the original samples or after appropriate dilution to achieve relevant concentrations of sugars and steviol-glycosides (i.e. 5-9% SE); the final description was agreed after discussion.

Test in data set [2]: as above
Also on record: species or system human. Particulars: before reaction, 10 ml KH2PO4 pH 7.8 (Example 57).

The conditions of data set [3]: cited from earlier work; for sweetness: depends on the tested concentration compared with sucrose.
Data set [4] is described as follows: HPLC/DAD/MS analysis of reaction partners and MRI (Amadori) products. Format: physicochemical. The following applies: 120 °C; for consumption in the reaction with Phe: KH2PO4 pH 7.8, 2.5 h, glucose present or not. The procedure: Quantitative evaluation was performed using external standardization.
[5] abbreviates: negative controls (no carbohydrate source), 10 ml glycerin/water, 100 °C, 40 minutes.
The mark [6] stands for this setting: after reaction, 10 ml KH2PO4 pH 7.8, 2.5 h, 120 °C (Example 58).
Setting [7] is: before reaction, 10 ml KH2PO4 pH 7.8 (Example 58).
Setting [8] is: 1 ml water + 9 ml Glycerin, 1 h, 100 °C.
Where [9] appears, read: after reaction, 10 ml KH2PO4 pH 7.8, 2.5 h, 120 °C (Example 57).

Residues, ends and D or L forms follow the SMILES beside them.

As for `CSCC[C@H](N)C(=O)O` [14.9 mg Met, Methionine], in data set [1] (setting [5]), the Color entry was “Very Slightly”, the Smell result was “Sulfuric” and the Taste result is recorded as “Slightly sweet”.

Turning to `N[C@@H](Cc1ccccc1)C(=O)O` [16.5 mg Phe, Phenylalanine], the Color result in data set [2] is reported as “No color”; in data set [1] (setting [6]), “Slightly Yellow”; in data set [1] (setting [7]), “No color”; in data set [1] (setting [5]), “Very Slightly”. Further, the Smell entry is “neutral” in data set [2]; “Caramel, burnt” in data set [1] (setting [6]); “Neutral” in data set [1] (setting [7]); “Bloomy, caramel” in data set [1] (setting [5]). In addition, the Taste result in data set [2] is listed as “No taste”; in data set [1] (after reaction, after dilution 1:20 (Example 58)), “Sweet”; in data set [1] (before reaction, after dilution 1:20 (Example 58)), “No taste”; in data set [1] (setting [5]) it was “Slightly sweet”.

Regarding `O=C[C@H](O)[C@@H](O)[C@H](O)[C@H](O)C(=O)O` [18 mg Glucuronic Acid, Glucuronic Acid], in data set [2], the Color result was “No color”, the Smell result is “neutral” and the Taste entry is “No taste”.

For the compound `N[C@@H](Cc1ccc(O)cc1)C(=O)O` [18.1 mg Tyr, Tyrosine], in data set [1] (setting [5]), the Color entry is “No color”, the Smell entry is “neutral” and the Taste entry is reported as “Slightly sweet”.

Regarding `N[C@@H](Cc1c[nH]c2ccccc12)C(=O)O` [20.42 mg Try, Tryptophan], in data set [1] (setting [5]), the Color entry is on record as “Slightly Yellow”, the Smell entry was “Unpleasant (fecal)” and the Taste result is recorded as “Slightly sweet”.

As to `O=C[C@H](O)[C@@H](O)[C@H](O)CO` [167 mMol Xyl, Xylose], in data set [1] (setting [8]), the Color result is recorded as “No color”, the Smell result was “neutral/meat” and the Taste result is recorded as “Sweet”.

`COC(=O)[C@H](Cc1ccccc1)NC(=O)[C@@H](N)CC(=O)O` [Aspartame] (H-Asp-Phe-OMe): in data set [3], the sweetness is reported as 160-200 times sweeter than sucrose.

`O=C[C@H](O)[C@@H](O)[C@H](O)[C@H](O)C(=O)O` [Glucuronic Acid]: the “consumption in the reaction with Phe” value in data set [4] is “completely consumed”. Also, in data set [1] (setting [9]), the Color entry is given as “Deep Yellow”, the Smell result is reported as “burnt bread” and the Taste result is recorded as “Bitter”.

As for `O=C[C@H](O)[C@H]1OC(=O)[C@@H](O)[C@H]1O` [Glucuronolactone], the “consumption in the reaction with Phe” value in data set [4] is given as “completely consumed”. Further, in data set [1] (setting [9]), the Color result is “Deep Yellow”, the Smell result is given as “Burnt sugar” and the Taste entry is reported as “Bitter”.

With `N[C@@H](Cc1ccccc1)C(=O)O` [Phe 60 mMol, Phenylalanine], in data set [1] (setting [8]), the Color entry was “Slightly Yellow”, the Smell result is reported as “flowery/bloomy-caramel” and the Taste result was “Sweet”.

On to `O=C[C@H](O)[C@@H](O)[C@H](O)CO` [Xyl, Xylose], for which the “% degradation” value in data set [4] (Phe + Xyl, pH = 7.0, 1.0 h) turned out to be 6.3%.

As to `O=S(=O)([O-])NC1CCCCC1.[Na+]` [sodium cyclamate], the sweetness result in data set [3] is reported as “about 30 times sweeter than sucrose”.

In the case of `OC[C@H]1O[C@H](O[C@]2(CCl)O[C@H](CCl)[C@@H](O)[C@@H]2O)[C@H](O)[C@@H](O)[C@H]1Cl` [sucralose], the sweetness entry in data set [3] is “about 600 times sweeter than sucrose”.

For MoneIlin, the Sweetness by weight in data set [3] (compared to sucrose) is given as 800-2,000.
